The subject of assay [1] is Puccinia recondita f. Sp. Tritici. Kind of assay: Fungicidal activity against Puccinia recondita f. sp. tritici / wheat / leaf disc preventative (brown rust). The following applies: foliar, 200 ppm in the applied formulation, wheat leaf segments, preventative, compared to untreated control leaf disks, read-out: disease control. The assay is classed as in vivo. The procedure, abridged:
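Percent disease control relative to untreated check segments is scored once disease develops, 7 to 9 days after application. Wheat cv. Kanzler segments receive compound spray (200 ppm in formulation) one day before spore inoculation, then sit at 19° C. and 75% rh under 12 h light/12 h dark.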

The subject of another assay is Phakopsora Pachyrhizi. The experiment in a line: Fungicidal activity against Phakopsora pachyrhizi / soybean / leaf disc preventative (Asian soybean rust). In kind it is in vivo. Particulars: foliar, 200 ppm in the applied formulation, soybean leaf disks, compared to untreated control leaf disks, read-out: disease control. As to the method:
Leaf disks or leaf segments of various plant species are cut from plants grown in a greenhouse. The cut leaf disks or segments are placed in multiwell plates (24-well format) onto water agar. The leaf disks are sprayed with a test solution before (preventative) or after (curative) inoculation. Compounds to be tested are prepared as DMSO solutions (max. 10 mg/ml) which are diluted to the appropriate concentration with 0.025% Tween20 just before spraying. The inoculated leaf disks or segments are incubated under defined conditions (temperature, relative humidity, light, etc.) according to the respective test system. A single evaluation of disease level is carried out 3 to 14 days after inoculation, depending on the pathosystem. Percent disease control relative to the untreated check leaf disks or segments is then calculated.
Fungicidal Activity Against Phakopsora Pachyrhizi Soybean/Leaf Disc Preventative (Asian Soybean Rust)
Soybean leaf disks are placed on water agar in multiwell plates (24-well format) and sprayed with the formulated test compound diluted in water. One day after application leaf discs are inoculated by spraying a spore suspension on the lower leaf surface. After an incubation period in a climate cabinet of 24-36 hours in darkness at 20° C. and 75% rh leaf disc are kept at 20° C. with 12 h light/day and 75% rh. The activity of a compound is assessed as percent disease control compared to untreated when an appropriate level of disease damage appears in untreated check leaf disks (12 to 14 days after application).
The following compounds at 200 ppm in the applied formulation give at least 80% disease control in this test when compared to untreated control leaf disks under the same conditions, which show extensive disease development.

Assay [2] deals with Glomerella lagenarium (Colletotrichum lagenarium). Kind of assay: Fungicidal activity against Glomerella lagenarium (Colletotrichum lagenarium) liquid culture / cucumber / preventative (anthracnose). In kind it is cell-based. Particulars: Colletotrichum orbiculare; 20 ppm in the applied formulation; liquid culture (PDB), growth inhibition measured photometrically after 3 to 4 days; compared to untreated control; read-out: disease control. The procedure, abridged:
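Percent activity against the untreated check was derived from photometric growth measurements made 2 to 7 days after conidia in potato dextrose broth were combined with compound at 20 ppm. Cultures were kept dark at 24 °C and 96% humidity.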

For `CCON(Cc1ccc(-c2noc(C(F)(F)F)n2)cc1)C(=O)C1(C#N)CC1` [Compound 1.628, 1-cyano-N-ethoxy-N-[[4-[5-(trifluoromethyl)-1,2,4-oxadiazol-3-yl]phenyl]methyl]-cyclopropane-carboxamide], the pest or weed control at 200 ppm (in assay [1]; in the assay on Phakopsora Pachyrhizi) was not below 80% throughout. Also, the inhibition of growth at 20 ppm in assay [2] is not below 80%.
Consider `CC(=O)CC(C)C(=O)N(Cc1ccc(-c2noc(C(F)(F)F)n2)cc1)CC1CC1` (stereo not shown) [Compound 1.209, N-(cyclopropylmethyl)-2-methyl-4-oxo-N-[[4-[5-(trifluoromethyl)-1,2,4-oxadiazol-3-yl]phenyl)methyl]-pentanamide], for which the pest or weed control at 200 ppm (in assay [1]; with Phakopsora Pachyrhizi) was not below 80% throughout. Moreover, in assay [2], the inhibition of growth at 20 ppm is not below 80%.
With `O=C(C1CCC1)N(Cc1ccc(-c2noc(C(F)(F)F)n2)cc1)CC1CC1` [Compound 1.221, N-(cyclopropylmethyl)-N-[[4-[5-(trifluoromethyl)-1,2,4-oxadiazol-3-yl]phenyl]methyl]-cyctobutane-carboxamide], the pest or weed control at 200 ppm (in assay [1]; with Phakopsora Pachyrhizi) was not below 80% in each case. Moreover, in assay [2], the inhibition of growth at 20 ppm is not below 80%.
In the case of `CCCCCC(=O)N(Cc1ccc(-c2noc(C(F)(F)F)n2)cc1)C1CC1` [Compound 1.93, N-cyclopropyl-N-[[4-[5-(trifluoromethyl)-1,2,4-oxadiazol-3-yl]phenyl]methyl]-hexanamide], the pest or weed control at 200 ppm (in assay [1]; in the assay with Phakopsora Pachyrhizi) was not below 80% throughout. The inhibition of growth at 20 ppm in assay [2] was not below 80%.
`CCON(Cc1ccc(-c2noc(C(F)(F)F)n2)cc1)C(=O)CC#N` [Compound 1.627, 2-cyano-N-ethoxy-N-[[4-[5-(trifluoromethyl)-1,2,4-oxadiazol-3-yl)phenyl]methyl]-acetamide]: the pest or weed control at 200 ppm (in assay [1]; in the assay with Phakopsora Pachyrhizi) was not below 80% each time. Further, the inhibition of growth at 20 ppm in assay [2] was not below 80%.
Consider `C#CCN(Cc1ccc(-c2noc(C(F)(F)F)n2)cc1)C(=O)Cc1ccc(C#N)cc1` [Compound 1.193, 2-(4-cyanophenyl)-N-prop-2-ynyl-N-[[4-[5-(trifluoromethyl)-1,2,4-oxadiazol-3-yl]phenyl]methyl]-acetamide], for which the pest or weed control at 200 ppm (in assay [1]; in the assay on Phakopsora Pachyrhizi) was not below 80% in each case. The inhibition of growth at 20 ppm in assay [2] is not below 80%.
On to `CC(C)CC(=O)N(Cc1ccc(-c2noc(C(F)(F)F)n2)cc1)CC1CC1` [Compound 1.218, N-(cyclopropylmethyl)-3-methyl-N-[[4-[5-(trifluoromethyl)-1,2,4-oxadiazol-3-yl]phenyl]methyl]-butanamide], for which the pest or weed control at 200 ppm (in assay [1]; in the assay with Phakopsora Pachyrhizi) was not below 80% each time. Moreover, the inhibition of growth at 20 ppm in assay [2] is not below 80%.
In the case of `CON(Cc1ccc(-c2noc(C(F)(F)F)n2)c(F)c1F)C(=O)c1ccccc1Cl` [Compound 1.576, 2-chloro-N-[[2,3-difluoro-4-[5-(trifluoromethyl)-1,2,4-oxadiazol-3-yl]phenyl]methyl]-N-methoxy-benzamide], the pest or weed control at 200 ppm (in assay [1]; in the assay with Phakopsora Pachyrhizi) was not below 80% throughout. The inhibition of growth at 20 ppm in assay [2] is not below 80%.
Turning to `O=C(CC(F)(F)F)OCCN(Cc1ccc(-c2noc(C(F)(F)F)n2)cc1)C(=O)CC(F)(F)F` [Compound 1.734, 2-[[4-[5-(trifluoromethyl)-1,2,4-oxadiazol-3-yl]phenyl]methyl-(3,3,3-trifluoropropanoyl)-amino]ethyl 3,3,3-trifluoropropanoate], the pest or weed control at 200 ppm (in assay [1]; in the assay with Phakopsora Pachyrhizi) was not below 80% each time. Besides, in assay [2], the inhibition of growth at 20 ppm was not below 80%.
Regarding `CON(Cc1ccc(-c2noc(C(F)(F)F)n2)cc1)C(=O)C1(C)CCCCC1` [Compound 1.33, N-methoxy-1-methyl-N-[[4-[5-(trifluoromethyl)-1,2,4-oxadiazol-3-yl]phenyl]methyl]-cyclohexane-carboxamide], the pest or weed control at 200 ppm (in assay [1]; with Phakopsora Pachyrhizi) was not below 80% each time. Moreover, the inhibition of growth at 20 ppm in assay [2] was not below 80%.
For `N#CC1(C(=O)N(CCO)Cc2ccc(-c3noc(C(F)(F)F)n3)cc2)CC1` [Compound 1.729, 1-cyano-N-(2-hydroxyethyl)-N-[[4-[5-(trifluoromethyl)-1,2,4-oxadiazol-3-yl]phenyl]methyl]-cyclopropane-carboxamide], the pest or weed control at 200 ppm (in assay [1]; with Phakopsora Pachyrhizi) was not below 80% each time. Besides, the inhibition of growth at 20 ppm in assay [2] is not below 80%.
Consider `O=C(C1CCCCC1)N(Cc1ccc(-c2noc(C(F)(F)F)n2)cc1)C1CC1` [Compound 1.90, N-cyclopropyl-N-[[4-[5-(trifluoromethyl)-1,2,4-oxadiazol-3-yl]phenyl]methyl]-cyclohexane-carboxamide], for which the pest or weed control at 200 ppm (in assay [1]; in the assay with Phakopsora Pachyrhizi) was not below 80% each time. In addition, the inhibition of growth at 20 ppm in assay [2] was not below 80%.
On to `O=C(CC(F)(F)F)N(Cc1ccc(-c2noc(C(F)(F)F)n2)cc1)CC(F)(F)F` [Compound 1.704, 3,3,3-trifluoro-N-(2,2,2-trifluoroethyl)-N-[[4-[5-(trifluoromethyl)-1,2,4-oxadiazol-3-yl]phenyl]methyl]-propanamide], for which the pest or weed control at 200 ppm (in assay [1]; with Phakopsora Pachyrhizi) was not below 80% in each case. Further, the inhibition of growth at 20 ppm in assay [2] is not below 80%.
Regarding `CCON(Cc1ccc(-c2noc(C(F)(F)F)n2)cc1)C(=O)CC` [Compound 1.562, N-ethoxy-N-[[4-[5-(trifiuoromethyl)-1,2,4-oxadiazol-3-yl]phenyl]methyl]-propanamide], the pest or weed control at 200 ppm (in assay [1]; with Phakopsora Pachyrhizi) was not below 80% each time. In addition, the inhibition of growth at 20 ppm in assay [2] was not below 80%.
`CCCCON(Cc1ccc(-c2noc(C(F)(F)F)n2)cc1)C(=O)C1CCOC1` (stereo not shown) [Compound 1.636, N-butoxy-N-[[4-[5-(trifluoromethyl)-1,2,4-oxadiazol-3-yl]phenyl]methyl]-tetrahydrofuran-3-carboxamide]: the pest or weed control at 200 ppm (in assay [1]; in the assay on Phakopsora Pachyrhizi) was not below 80% throughout. Further, the inhibition of growth at 20 ppm in assay [2] was not below 80%.
Take `CCC(C)(CC)C(=O)N(Cc1ccc(-c2noc(C(F)(F)F)n2)cc1)C1CC1` [Compound 1.135, N-cyclopropyl-2-ethyl-2-methyl-N-[[4-[5-(trifluoromethyl)-1,2,4-oxadiazol-3-yl]phenyl]methyl]-butanamide]: the pest or weed control at 200 ppm (in assay [1]; in the assay on Phakopsora Pachyrhizi) was not below 80% in each case. The inhibition of growth at 20 ppm in assay [2] was not below 80%.
In the case of `C#CCOc1ccc(C(=O)N(Cc2ccc(-c3noc(C(F)(F)F)n3)cc2)OC)cc1F` [Compound 1.51, 3-fluoro-N-methoxy-4-prop-2-ynoxy-N-[[4-[5-(trifluoromethy)-1,2,4-oxadiazol-3-yl]phenyl]methyl]-benzamide], the pest or weed control at 200 ppm (in assay [1]; in the assay with Phakopsora Pachyrhizi) was not below 80% in each case. Also, in assay [2], the inhibition of growth at 20 ppm was not below 80%.
For `O=C(c1ccccc1Cl)N(CCO)Cc1ccc(-c2noc(C(F)(F)F)n2)cc1` [Compound 1.709, 2-chloro-N-(2-hydroxyethyl)-N-[[4-[5-(trifluoromethyl)-1,2,4-oxadiazol-3-yl]phenyl]methyl]-benzamide], the pest or weed control at 200 ppm (in assay [1]; in the assay on Phakopsora Pachyrhizi) was not below 80% in each case. The inhibition of growth at 20 ppm in assay [2] is not below 80%.
Regarding `O=C(OCCN(Cc1ccc(-c2noc(C(F)(F)F)n2)cc1)C(=O)C1CCC1)C1CCC1` [Compound 1.715, 2-[cyclobulanecarbonyl-[[4-[5-(trifluoromethyl)-1,2,4-oxadiazol-3-yl]phenyl]methyl]-amino]ethyl cyclobutane-carboxylate], the pest or weed control at 200 ppm (in assay [1]; in the assay on Phakopsora Pachyrhizi) was not below 80% in each case. For the same compound, the inhibition of growth at 20 ppm in assay [2] was not below 80%.
For the compound `C#CCC(NS(=O)(=O)CC)C(=O)N(Cc1ccc(-c2noc(C(F)(F)F)n2)cc1)OC` (stereo not shown) [Compound 1.60, 2-(ethylsulfonylamino)-N-methoxy-N-[[4-[5-(trifluoromethyl)-1,2,4-oxadiazol-3-yl]phenyl]methyl]-pent-4-ynamide], the pest or weed control at 200 ppm (in assay [1]; with Phakopsora Pachyrhizi) was not below 80% throughout.
As to `N#CCC(=O)N(CCO)Cc1ccc(-c2noc(C(F)(F)F)n2)cc1` [Compound 1.728, 2-cyano-N-(2-hydroxyethyl)-N-[[4-[5-(trifluoromethyl)-1,2,4-oxadiazol-3-yl]phenyl]methyl]-acetamide], the pest or weed control at 200 ppm (in assay [1]; with Phakopsora Pachyrhizi) was not below 80% in each case.
